The target in one assay is IgG. As to the kind of experiment: IgG SPR binding. A general note: In SPR one partner is held on a chip, and binding of the other changes the refractive index at the surface.
The target of assay [1] is T1, ASGPR receptor on HepG2 cells (ternary complex with AF488-labeled antibody) (Homo sapiens, UniProt P07306).
T1 construct: host or cells: HepG2
T1 sequence (P07306 1-291): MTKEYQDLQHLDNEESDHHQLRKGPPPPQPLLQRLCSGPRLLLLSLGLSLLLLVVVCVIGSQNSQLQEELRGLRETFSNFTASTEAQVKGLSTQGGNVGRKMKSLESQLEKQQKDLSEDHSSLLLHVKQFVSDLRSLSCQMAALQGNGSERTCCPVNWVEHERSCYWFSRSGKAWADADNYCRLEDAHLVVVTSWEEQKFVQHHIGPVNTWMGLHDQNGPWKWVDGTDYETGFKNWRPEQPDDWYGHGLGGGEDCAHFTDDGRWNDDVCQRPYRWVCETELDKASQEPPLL
T1 sequence (P07307 1-311 partner): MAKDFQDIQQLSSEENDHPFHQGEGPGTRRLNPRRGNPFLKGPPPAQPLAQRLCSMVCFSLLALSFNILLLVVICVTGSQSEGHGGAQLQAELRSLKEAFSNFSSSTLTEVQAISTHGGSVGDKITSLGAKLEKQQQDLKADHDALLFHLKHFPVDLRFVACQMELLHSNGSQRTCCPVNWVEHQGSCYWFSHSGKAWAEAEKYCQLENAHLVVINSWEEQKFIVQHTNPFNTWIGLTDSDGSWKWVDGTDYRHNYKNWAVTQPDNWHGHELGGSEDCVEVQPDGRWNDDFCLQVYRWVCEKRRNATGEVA
As to the kind of experiment: Ternary complex formation assay (flow cytometry, cell-associated AF488 fluorescence). The class given is cell-based. Particulars: 100 nM AF488-labeled antibody, 1 hour at 4° C. For orientation: A flow cytometer gives signals particle by particle.

The target in the next assay is T2, ASGPR (Homo sapiens, UniProt P07306).
T2 construct: biotin (biotinylated)
T2 sequence (P07306 1-291): T1 sequence (P07306 1-291)
As to the kind of experiment: ASGPR SPR binding.

A further assay concerns HepG2 cells. As to the kind of experiment: Cellular uptake assay (high-content imaging). The class given is cell-based, human. Particulars: 100 nM AF488-labeled antibody, 6 hours at 37° C. The source says:
The cellular uptake assay is designed to measure compound-mediated cellular uptake of fluorescently labeled antibody following ternary complex formation with the ASGPR receptor and endocytosis of the entire complex into cells. The optimal concentration of compound will result in the maximum number of cells with intracellular antibody and is represented as the peak ratio of antibody-positive cells over the total number of cells. As with the ternary complex formation assay, too much or too little compound will result in suboptimal complex formation and fewer cells will have measurable intracellular fluorescence.
Human IgG (Sigma-Aldrich, 14506) was covalently labeled with Alexa Fluor 488 using the Alexa Fluor™ 488 Protein Labeling Kit (Thermo Fisher, A10235) following the manufacturer's instructions. HepG2 cells were plated in DMEM supplemented with 10% FBS at 5,000 cells per well in a 96-well microtiter plate and incubated for approximately 18 hours at 37° C./5% CO2. For studies using human IgG, 100 nM AF488-labeled human IgG antibodies and serial dilutions of IgG-based degrader (0.1% DMSO final concentration) were added to the cells and the mixture was incubated at 37° C. for 6 hours. For studies using DNP, 100 nM AF488-labeled DNP antibodies and serial dilutions of DNP-based degrader (0.1% DMSO final concentration) were added to the cells and the mixture was incubated at 37° C. for 6 hours. HepG2 cells were fixed in 100% methanol at −20° C. for 20 min, washed 3× with PBS, then stained with DAPI (Thermo, Cat #H3570). HepG2 cells were imaged for DAPI and Alexa Fluor 488 using the Operetta CLS, high-content analysis system (PerkinElmer). Data is presented as the ratio of the number of cells positive for hIgG or DNP (AF-488 fluorescence) over the total cell number (measured by DAPI).

[2] abbreviates: Table 3, read-out: IgG SPR Binding KD.
Setting [3] is: Table 3, class symbols, read-out: Ternary Complex EC50.
The mark [4] stands for this setting: Table 3, read-out: ASGPR SPR Binding KD.
Setting [5] is: Homo sapiens, Table 3, class symbols, read-out: Uptake Assay (EC50).
[6] abbreviates: Table 3, numeric bounds, read-out: Ternary Complex EC50.
Where [7] appears, read: the 25th table, class symbols, read-out: TCF EC50.
Where [8] appears, read: second table, read-out: ASGPR KD.
[9] abbreviates: the 25th table, class symbols, read-out: Uptake EC50.

Like-named read-outs stand apart in the source and are kept apart here.

In general, Kd refers to the concentration at which binding is half-saturated. In general, EC50 refers to the concentration that produces a half-maximal response.

`CC(C)C[C@@H]1NC(=O)[C@H](Cc2cnc[nH]2)NC(=O)[C@H](Cc2c[nH]c3ccccc23)NC(=O)[C@H](C)NC(=O)[C@@H]2CSSC[C@H](NC(=O)[C@H](Cc3c[nH]c4ccccc34)NC(=O)[C@H](C(C)C)NC(=O)[C@H](CC(C)C)NC(=O)[C@H](CCC(=O)O)NC(=O)CNC1=O)C(=O)N[C@@H]([C@@H](C)O)C(=O)N1CCC[C@@H]1C(=O)N1C[C@H](NC(=O)c3ccc(N4CCC(CN5CCN(C[C@H]6OC[C@H](Nc7nc(C(F)(F)F)ccc7F)[C@@H](O)[C@H]6O)CC5)CC4)cc3)C[C@H]1C(=O)N[C@@H](CC(=O)O)C(=O)N2` [compound 30]: the dissociation constant (Kd) at IgG (setting [2]) and at ASGPR (setting [4]) was under 100 nM throughout. Besides, the 50% effective concentration (EC50) (in assay [1] (setting [3]); with HepG2 cells (setting [5])) was 100 to 500 nM throughout.
In the case of `CC(C)C[C@@H]1NC(=O)[C@H](Cc2cnc[nH]2)NC(=O)[C@H](Cc2c[nH]c3ccccc23)NC(=O)[C@H](C)NC(=O)[C@@H]2CSSC[C@H](NC(=O)[C@H](Cc3c[nH]c4ccccc34)NC(=O)[C@H](C(C)C)NC(=O)[C@H](CC(C)C)NC(=O)[C@H](CCC(=O)O)NC(=O)CNC1=O)C(=O)N[C@@H]([C@@H](C)O)C(=O)N1CCC[C@@H]1C(=O)N1C[C@@H](NC(=O)c3ccc(N4CCC(CN5CCN(C[C@H]6OC[C@H](Nc7ccnc(C(F)(F)F)n7)[C@@H](O)[C@H]6O)CC5)CC4)cc3)C[C@H]1C(=O)N[C@@H](CC(=O)O)C(=O)N2` [compound 31], the Kd at IgG (setting [2]) and on ASGPR (setting [4]) was under 100 nM in each case. Also, the concentration for a half-maximal effect (EC50) (in assay [1] (setting [3]); in the assay with HepG2 cells (setting [5])) was under 100 nM each time.
Consider `CC(C)C[C@@H]1NC(=O)[C@H](Cc2cnc[nH]2)NC(=O)[C@H](Cc2c[nH]c3ccccc23)NC(=O)[C@H](C)NC(=O)[C@@H]2CSSC[C@H](NC(=O)[C@H](Cc3c[nH]c4ccccc34)NC(=O)[C@H](C(C)C)NC(=O)[C@H](CC(C)C)NC(=O)[C@H](CCC(=O)O)NC(=O)CNC1=O)C(=O)N[C@@H]([C@@H](C)O)C(=O)N1CCC[C@@H]1C(=O)N1C[C@H](NC(=O)c3ccc(N4CCC(CN5CCN(C[C@H]6OC[C@H](Nc7ccnc(C(F)(F)F)n7)[C@@H](O)[C@H]6O)CC5)CC4)cc3)C[C@H]1C(=O)N[C@@H](CC(=O)O)C(=O)N2` [compound 32], for which the Kd on IgG (setting [2]) and at ASGPR (setting [4]) was under 100 nM throughout. The concentration giving a half-maximal response (EC50) (in assay [1] (setting [3]); in the assay on HepG2 cells (setting [5])) was under 100 nM in each case.
As to `CC(C)C[C@@H]1NC(=O)[C@H](Cc2cnc[nH]2)NC(=O)[C@H](Cc2c[nH]c3ccccc23)NC(=O)[C@H](C)NC(=O)[C@@H]2CSSC[C@H](NC(=O)[C@H](Cc3c[nH]c4ccccc34)NC(=O)[C@H](C(C)C)NC(=O)[C@H](CC(C)C)NC(=O)[C@H](CCC(=O)O)NC(=O)CNC1=O)C(=O)N[C@@H]([C@@H](C)O)C(=O)N1CCC[C@@H]1C(=O)N1C[C@@H](NC(=O)COCCOCC(=O)NC[C@H]3OC[C@H](Nc4nc(C(F)(F)F)ccc4F)[C@@H](O)[C@H]3O)C[C@H]1C(=O)N[C@@H](CC(=O)O)C(=O)N2` [compound 33], the Kd at IgG (setting [2]) was under 100 nM; at ASGPR (setting [4]), 100 to 500 nM. The EC50 (in assay [1] (setting [3]); with HepG2 cells (setting [5])) was under 100 nM in each case.
In the case of `CC(C)C[C@@H]1NC(=O)[C@H](Cc2cnc[nH]2)NC(=O)[C@H](Cc2c[nH]c3ccccc23)NC(=O)[C@H](C)NC(=O)[C@@H]2CSSC[C@H](NC(=O)[C@H](Cc3c[nH]c4ccccc34)NC(=O)[C@H](C(C)C)NC(=O)[C@H](CC(C)C)NC(=O)[C@H](CCC(=O)O)NC(=O)CNC1=O)C(=O)N[C@@H]([C@@H](C)O)C(=O)N1CCC[C@@H]1C(=O)N1C[C@@H](NC(=O)COCCOCC(=O)NC[C@H]3OC[C@H](Nc4nccc(C(F)(F)F)n4)[C@@H](O)[C@H]3O)C[C@H]1C(=O)N[C@@H](CC(=O)O)C(=O)N2` [compound 34], the Kd on IgG (setting [2]) was under 100 nM; on ASGPR (setting [4]), over 1000 nM. For the same compound, the figures for the EC50 (in assay [1] (setting [6]); with HepG2 cells (setting [5])) were over 964 nM and over 1000 nM, respectively.
As to `CC(C)C[C@@H]1NC(=O)[C@H](Cc2cnc[nH]2)NC(=O)[C@H](Cc2c[nH]c3ccccc23)NC(=O)[C@H](C)NC(=O)[C@@H]2CSSC[C@H](NC(=O)[C@H](Cc3c[nH]c4ccccc34)NC(=O)[C@H](C(C)C)NC(=O)[C@H](CC(C)C)NC(=O)[C@H](CCC(=O)O)NC(=O)CNC1=O)C(=O)N[C@@H]([C@@H](C)O)C(=O)N1CCC[C@@H]1C(=O)N1C[C@H](NC(=O)COCCOCC(=O)NC[C@H]3OC[C@H](Nc4nccc(C(F)(F)F)n4)[C@@H](O)[C@H]3O)C[C@H]1C(=O)N[C@@H](CC(=O)O)C(=O)N2` [compound 35], the Kd on IgG (setting [2]) was under 100 nM; at ASGPR (setting [4]), over 1000 nM. Further, the concentration giving a half-maximal response (EC50) in assay [1] (setting [6]) is over 10000 nM; in the assay with HepG2 cells (Homo sapiens, Table 3, numeric bounds, read-out: Uptake Assay (EC50)), over 10000 nM.
In the case of `CC(=O)N[C@H]1[C@H](OCCCCOCCOCCOCCNC(=O)CCOCC(COCCC(=O)NCCOCCOCCOCCO[C@@H]2O[C@H](CO)[C@H](O)[C@H](O)[C@H]2NC(C)=O)NC(=O)CCCCCn2cc(CCCC(=O)NCCOCCOCCOCCOCCC(=O)N[C@H]3C[C@H]4C(=O)N[C@@H](CC(=O)O)C(=O)N[C@H]5CSSC[C@H](NC(=O)[C@H](Cc6c[nH]c7ccccc67)NC(=O)[C@H](C(C)C)NC(=O)[C@H](CC(C)C)NC(=O)[C@H](CCC(=O)O)NC(=O)CNC(=O)[C@H](CC(C)C)NC(=O)[C@H](Cc6cnc[nH]6)NC(=O)[C@H](Cc6c[nH]c7ccccc67)NC(=O)[C@H](C)NC5=O)C(=O)N[C@@H]([C@@H](C)O)C(=O)N5CCC[C@@H]5C(=O)N4C3)nn2)O[C@H](CO)[C@H](O)[C@@H]1O` (stereo partly drawn) [compound 86], the Kd on IgG (second table, read-out: IgG KD) is under 100 nM; at ASGPR (setting [8]) it was over 1000 nM. The EC50 (in assay [1] (setting [7]); in the assay on HepG2 cells (setting [9])) was over 1000 nM each time.
Turning to `CC(C)C[C@@H]1NC(=O)[C@H](Cc2cnc[nH]2)NC(=O)[C@H](Cc2c[nH]c3ccccc23)NC(=O)[C@H](C)NC(=O)[C@@H](NC(=O)[C@H](CC(=O)O)NC(=O)CCOCCOCCOCCOCCNC(=O)CCCc2cn(CCCCCC(=O)NC(CCCCC(=O)NCCOCCOCCOCCOC[C@H]3OC[C@H](Nc4nccc(C(F)(F)F)n4)[C@@H](O)[C@H]3O)COCCC(=O)NCCOCCOCCOCCOC[C@H]3OC[C@H](Nc4nccc(C(F)(F)F)n4)[C@@H](O)[C@H]3O)nn2)CSSC[C@@H](C(=O)N[C@H](C(N)=O)[C@@H](C)O)NC(=O)[C@H](Cc2c[nH]c3ccccc23)NC(=O)[C@H](C(C)C)NC(=O)[C@H](CC(C)C)NC(=O)[C@H](CCC(=O)O)NC(=O)CNC1=O` (stereo partly drawn) [compound 90], the Kd at IgG (second table, read-out: IgG KD) is under 100 nM; on ASGPR (setting [8]), under 100 nM. Besides, the EC50 (in assay [1] (setting [7]); in the assay with HepG2 cells (setting [9])) was under 100 nM throughout.
As to `CC(C)C[C@@H]1NC(=O)[C@H](Cc2cnc[nH]2)NC(=O)[C@H](Cc2c[nH]c3ccccc23)NC(=O)[C@H](C)NC(=O)[C@@H](NC(=O)[C@H](CC(=O)O)NC(=O)CCOCCOCCOCCOCCNC(=O)CCCc2cn(CCCCCC(=O)NC(COCCC(=O)NCCOCCOCCOCCO[C@@H]3O[C@H](CO)[C@H](O)[C@H](O)[C@H]3Nc3cncc(C(F)(F)F)n3)COCCC(=O)NCCOCCOCCOCCO[C@@H]3O[C@H](CO)[C@H](O)[C@H](O)[C@H]3Nc3cncc(C(F)(F)F)n3)nn2)CSSC[C@@H](C(=O)N[C@H](C(N)=O)[C@@H](C)O)NC(=O)[C@H](Cc2c[nH]c3ccccc23)NC(=O)[C@H](C(C)C)NC(=O)[C@H](CC(C)C)NC(=O)[C@H](CCC(=O)O)NC(=O)CNC1=O` [compound 93], the Kd on IgG (second table, read-out: IgG KD) was under 100 nM; at ASGPR (setting [8]), under 100 nM. Besides, the EC50 (in assay [1] (setting [7]); in the assay with HepG2 cells (setting [9])) was under 100 nM throughout.

Source of the values: US20260083851A1 (AVILAR THERAPEUTICS, INC., priority 2022, published 2026).
